Assay results as given in ChEMBL document CHEMBL1149613, “Characterized mechanism of alpha-mangostin-induced cell death: caspase-independent apoptosis with release of endonuclease-G from mitochondria and increased miR-143 expression in human colorectal cancer DLD-1 cells” (Bioorg Med Chem, 2007).
Calls of active or inactive are those of the source. The calls are words filed in the database; no cut-off is given here.

Assays:
Type in all cases: functional, cell-based
DLD-1 [1] = test: Growth inhibition of human DLD1 cells
DLD-1 [2] = test: Effect on ERK5 mRNA expression levels in human DLD1 cells by semi-qRT PCR
DLD-1 [3] = test: Induction of apoptosis in human DLD1 cells assessed as release of endonuclease-G after 6 hrs by Western blot
DLD-1 [4] = test: Cytotoxicity against human DLD1 cells at 2 uM after 24 hrs by Trypan blue exclusion test
DLD-1 [5] = test: Induction of apoptosis in human DLD1 cells assessed as activation of pan-caspase at 20 uM by Western blot
DLD-1 [6] = test: Decrease in Erk5 expression levels in human DLD1 cells by Western blot
DLD-1 [7] = test: Induction of apoptosis in human DLD1 cells assessed as activation of bax protein at 20 uM by Western blot
DLD-1 [8] = test: Induction of apoptosis in human DLD1 cells assessed as activation of bcl2 at 20 uM by Western blot
DLD-1 [9] = test: Induction of apoptosis in human DLD1 cells assessed as release of apoptosis-inducing factor at 20 uM after 6 to 24 hrs by Western blot
DLD-1 [10] = test: Reduction in cMyc level in human DLD1 cells by Western blot
DLD-1 [11] = test: Cytotoxicity against human DLD1 cells after 24 hrs by Trypan blue exclusion test; conditions: DLD-1, 24 h
DLD-1 [12] = test: Apoptotic activity in human DLD1 cells at 15 uM after 24 hrs by Trypan blue exclusion test
DLD-1 [13] = test: Increase in p-p38 levels in human DLD1 cells after 1 to 3 hrs by Western blot
DLD-1 [14] = test: Cytotoxicity against human DLD1 cells assessed as decrease in cell number at 20 uM after 24 hrs by Trypan blue exclusion test
DLD-1 [15] = test: Induction of apoptosis in human DLD1 cells assessed as activation of caspase-3 at 20 uM by Western blot
DLD-1 [16] = test: Induction of apoptosis in human DLD1 cells assessed as release of endonuclease-G at 20 uM after 6 to 24 hrs by Western blot

| Compound | IC50 (DLD-1 [1]) [µM] | Activity (DLD-1 [2]) | Activity (DLD-1 [3]) | Activity (DLD-1 [4]) | Activity (DLD-1 [5]) | Activity (DLD-1 [6]) | Activity (DLD-1 [7]) | Activity (DLD-1 [8]) | Activity (DLD-1 [9]) | Activity (DLD-1 [10]) | IC50 (DLD-1 [11]) [µM] | Activity (DLD-1 [12]) | Activity (DLD-1 [13]) | Activity (DLD-1 [14]) | Activity (DLD-1 [15]) | Activity (DLD-1 [16]) |
| --- | --- | --- | --- | --- | --- | --- | --- | --- | --- | --- | --- | --- | --- | --- | --- | --- |
| O=c1[nH]cc(F)c(=O)[nH]1 [FLUOROURACIL] | 4.5 | – | – | – | – | – | – | – | – | – | – | – | – | – | – | – |
| COc1c(O)cc2oc3cc(O)c(CC=C(C)C)c(O)c3c(=O)c2c1CC=C(C)C [MANGOSTIN] | – | inactive | Dose-dependent effect | Active | inactive | Active | inactive | inactive | inactive | Active | 7.5 | Active | Active | Active | inactive | Active |
